From article PMC5481270, “Antiparasitic Sesquiterpenes from the Cameroonian Spice Scleria striatinux and Preliminary In Vitro and In Silico DMPK Assessment” (Natural Products and Bioprospecting, 2017)
In brackets after ≈: the same amount, converted by molar mass. Read-outs that look alike come from different tables or passages of the source.

Experiments:
[1] = test system: Plasmodium falciparum NF54 (chloroquine-sensitive); assay: Antiplasmodial [3H] hypoxanthine incorporation assay, NF54 strain; type: cell-based; details: for IC50: Plasmodium falciparum
Description: (§1) The antiplasmodial testing of the extracts was run in duplicate. The method was based upon the [^3H] hypoxanthine incorporation assay, as described by Desjardins and modified by Ridley and the data fitted to generate IC50 and IC90 values, corresponding to the concentrations required to cause 50 and 90% inhibition of parasite growth respectively. The Plasmodium falciparum clones used for the testing were W-2 and D-6. W-2 strain otherwise known as the Indochina clone is known to be resistant to chloroquine, pyrimethamine, sulfadoxine and quinine. Meanwhile the D-6 otherwise known as the Sierra Leonian clone is resistant to mefloquine but sensitive to the above named drugs. Chloroquine, quinine and artesunate were used as reference drugs. […] Compounds 1 and 2 (due to their quantity) were subsequently tested against T. cruzi, L. donovani and T. b. rhodensiense, parasites responsible for Chagas disease, leishmaniasis and human African trypanosomiasis (sleeping sickness) respectively with Benznidazole, Miltefosine and Melarsoprol included as reference drugs. Cytotoxicity was evaluated using HT-29 (human […] carcinoma) with podophyllotoxin as reference drug.
(§2) The crude S. striatinux extracts (MeOH and CH2Cl2) were tested at the Walter Reed Army Institute of Research (WRAIR), Washington. DC. […] The method used for antiplasmodial testing, was based upon [^3H] hypoxanthine incorporation assay, previously described in the literature. Both chloroquine-sensitive (NF54, D6) and chloroquine-resistant (K1, W2) strains and chloroquine, quinine and artesunate used as positive references. L. donovani MHOM-ET-67/L82 (obtained from the spleen of an infected hamster and grown in axenic cultures) was used for the antileishmanial testing while T. brucei squib 427 strain (suramin-sensitive) was used for the antitrypanosomal testing. Cytotoxicity test was done using HT-29 (human […] carcinoma), with podophyllotoxin included as reference drug at a concentration of 0.1 μg/mL.

[2] = test system: Plasmodium falciparum W-2 (chloroquine-resistant, Indochina clone); assay: Antiplasmodial [3H] hypoxanthine incorporation assay, W2 clone; type: cell-based
Description: as §1, §2

[3] = test system: Plasmodium falciparum D-6 (chloroquine-sensitive, Sierra Leonian clone); assay: Antiplasmodial [3H] hypoxanthine incorporation assay, D6 clone; type: cell-based
Description: as §1, §2

[4] = test system: Plasmodium falciparum K1 (chloroquine-resistant); assay: Antiplasmodial [3H] hypoxanthine incorporation assay, K1 strain; type: cell-based; details: P. falciparum K1, results from STI
Description: as §1
(§3) The crude S. striatinux extracts (MeOH and CH2Cl2) were tested at the Walter Reed Army Institute of Research (WRAIR), Washington. DC. […]

T. cruzi = assay: Antitrypanosomal testing, T. cruzi; type: cell-based, Trypanosoma cruzi; details: calculated versus cytotoxicity (HT-29)
Description: as §1, §3

T. b. rhodesiense = assay: Antitrypanosomal testing, T. b. rhodesiense; type: cell-based, Trypanosoma brucei rhodesiense; details: calculated versus cytotoxicity (HT-29)
Description: as §1, §3

[5] = Kinetic solubility, turbidimetric method (nephelometry); type: physicochemical; details: kinetic from dmso stock, 1% DMSO
Protocol: The solubility of the compounds was estimated via the turbidimetric method using standard test buffers (pH 2.0 and pH 6.5) as previously described. […] There was no significant change in ionization in the molecule across this pH range.
(§4) The kinetic solubility of test compounds was examined by spiking compound in DMSO into either pH 6.5 phosphate buffer or 0.01 M HCl (approximately pH 2.0) with the final DMSO concentration being 1%. Samples were then analysed via nephelometry to determine a solubility range [23]. Effective log D values were measured using a chromatographic method employing a SUPELCOSIL LC-ABZ column using an octanol saturated mobile phase at pH 7.4 [23]. Theoretical physicochemical values were determined using the ACD logD suite of software programs. The molecular weight (MW) should ideally be ≤500 for good membrane permeability, while the hydrogen bond donor/acceptor properties should be respectively ≤5 and ≤10 respectively. The number of single bonds that are not in a ring or constrained system and are not bonded to a hydrogen atom (often referred to as the number of rotatable single bonds) should be ≤10 for acceptable oral bioavailability. The polar surface area (PSA) was calculated using a simplified 2-dimensional modeling approach, which has been validated against a more sophisticated 3-dimentional modeling strategy. For acceptable oral drug absorption and membrane permeability, the PSA value should be ≤120 Å^2. […] The 1-octanol/water partition coefficient were calculated for ionisable compounds. The values were calculated on the basis of log P and pKa values. Log D values are quoted with respect to a relevant pH, thereby providing a partition coefficient profile under physiologically relevant conditions.

[6] = Chromatographic eLogD technique; type: physicochemical; details: for chromatographic logD: SUPELCOSIL LC-ABZ column with octanol saturated mobile phase, pH 7.4
Protocol: The partition coefficients of the two compounds were measured via the previously described chromatographic technique. […] The LogD7.4 value for compound 2 of 0.35 is towards the lower end of the scale normally associated with “drug-like” molecules. […] For compound 2, parameters were also calculated for its terminal aldehyde tautomer, 2a, which is presumed to be the major form of the compound. The overall calculated parameters fall within the ranges associated with “drug-like” molecules.
as §4

[7] = Metabolic stability in human liver microsomes; type: in vitro ADME; details: for Metabolites detected: LCMS; for microsomal CLint at 2 µM: NADPH dependent degradation, 37 °C, read-out: In vitro CL int; for Microsome predicted E H (hepatic extraction ratio): Q = 20.7 mL/min/kg; for CLint scaled at 2 µM: scaled from in vitro CL int, read-out: Microsome predicted CL int
Description: The objective here was to determine the in vitro metabolic stability of these two compounds using human liver microsomes as a preliminary indication of their likely in vivo metabolic clearance and potential metabolic products. The method used was as outlined in Obach. […] The compounds maybe susceptible to […] in more complicated test systems based on their structure, since both compounds 1 and 2 contain an α, β-unsaturated ketone moiety with the potential to act as a Michael acceptor (by forming adducts with endogenous nucleophiles such as glutathione). However, this was not investigated and would be the subject of future studies in which we hope to use a simple chemical system (i.e., in aqueous buffer containing free glutathione) or examining the extent of degradation in whole blood.
Test compounds (2 µM) were incubated at 37 °C with human liver microsomes [purchased from BD Gentest (Woburn, MA) using microsome lot # 41207]. The reaction was initiated by the addition of an NADPH-regenerating system (i.e. NADPH is the cofactor required for CYP450-mediated metabolism) and quenched at various time points over the incubation period by the addition of acetonitrile. Additional samples co-activated by NADPH and UDPGA (the co-factor for glucoronidation), were included in the incubation for the qualitative assessment of the potential for glucoronide formation. The relative loss of parent compound and formation of metabolic products was determined using a single quadrupole LCMS instrument (Waters, Manchester, UK).
Test compound concentration versus time data was fitted to an exponential decay function to determine the first-order rate constant for substrate depletion (k). Each substrate depletion rate constant was then used to calculate: (1) an initial in vitro clearance value (in vitro, CL int,in vitro); (2) an intrinsic clearance value (CL int); and (3) a hepatic extraction ratio (E H)1 CLint,invitro=k/microsomalproteincontent(0.4mgprotein/mL) 2 CLint=CLint,invitro×livermass(g)/bodyweight(kg)×45mgmicrosomalprotein/glivermass 3 EH=CLint/Q+CLint For Eqs.

[8] = test system: L. donovani MHOM-ET-67/L82; assay: Antileishmanial testing; type: cell-based, Leishmania donovani; details: calculated versus cytotoxicity (HT-29)
Description: as §1, §3

[9] = P. falciparum W2, mean of 2–3 determinations, results from WRAIR, read-out: IC50 W2
[10] = P. falciparum NF54, results from STI, read-out: IC50 NF54
[11] = P. falciparum D6, mean of 2–3 determinations, results from WRAIR, read-out: IC50 D6
[12] = aqueous buffer, pH 6.5 phosphate buffer, read-out: Solubility pH 6.5
[13] = simulated gastric fluid, pH 2 (0.01 M HCl), read-out: Solubility pH 2

In the case of `C=CC(C)(O)C(=O)C[C@H]1C(C)(C)C(=O)C=C[C@]1(C)O` (some centres unmarked) [Compound 5], the “IC50 NF54” value ([1]; P. falciparum NF54, results from STI) is reported as over 1 mg/L.
With `C=CC(C)(O)C1C[C@H]2C(C)(C)C(=O)C=C[C@]2(C)OO1` (some centres unmarked) [Compound 6] the IC50 [2, 9] was 0.47 mg/L (≈ 1.76 µM), the IC50 [1, 10] was over 1 mg/L and the IC50 [3, 11] was 0.483 mg/L (≈ 1.81 µM).
`CCCCCCCCCC(=O)OC/C=C(\C)C(=O)C[C@H]1C(C)(C)C(=O)C=C[C@]1(C)O` [Compound 3] gave an IC50 [2, 9] of 0.46 mg/L (≈ 1.09 µM), an IC50 [1, 10] of over 1 mg/L and an IC50 [3, 11] of 0.539 mg/L (≈ 1.28 µM).
With `C/C(=C\CO)[C@H]1C[C@H]2C(C)(C)C(=O)C=C[C@]2(C)OO1` [Compound 1, okundoperoxide] the IC50 [4] was 0.661 mg/L (≈ 2.48 µM), the IC50 [2, 9] was 0.268 mg/L (≈ 1.01 µM) and the “SI (selective index) T. cruzi” value (T. cruzi) was 1. The IC50 [1, 10] was 0.304 mg/L (≈ 1.14 µM), the “SI (selective index) T. b. rhod” value (T. b. rhodesiense) was 3.4 and the IC50 [3, 11] was 0.195 mg/L (≈ 0.732 µM). For the same compound, the solubility [5, 12] was over 0.1 mg/mL, the solubility [5, 13] was over 0.1 mg/mL and the “elogD pH 7.4” value [6] was 1.71. For the same compound, the chromatographic logD [6] was 1.71, the Metabolites detected [7] was “None detected” and the microsomal CLint at 2 µM [7] was 12.3 µL/min/mg. The “Microsome predicted E H (hepatic extraction ratio)” value [7] was 0.41, the CLint scaled at 2 µM [7] was 0.858 L/h/kg and the “SI (selective index) L. donovani” value [8] was 11.4.
`CCN(CC)CCCC(C)Nc1ccnc2cc(Cl)ccc12` (centres unmarked) [Chloroquine, reference compound] showed an IC50 ([2]; W2, read-out: IC50 W2) of 0.084 mg/L (≈ 0.263 µM), an IC50 ([1]; NF54, read-out: IC50 NF54) of 0.0023 mg/L (≈ 0.00719 µM) and an IC50 ([3]; D6, read-out: IC50 D6) of 0.003 mg/L (≈ 0.00938 µM).
For `C/C(=C\CO)C(=O)C[C@H]1C(C)(C)C(=O)C=C[C@]1(C)O` [Compound 2, sclerienone C], the IC50 [4] was 0.511 mg/L (≈ 1.92 µM), the IC50 [2, 9] was 0.354 mg/L (≈ 1.33 µM) and the “SI (selective index) T. cruzi” value (T. cruzi) was 0.74. The IC50 [1, 10] was 0.439 mg/L (≈ 1.65 µM), the “SI (selective index) T. b. rhod” value (T. b. rhodesiense) was 8.3 and the IC50 [3, 11] was 0.267 mg/L (≈ 1 µM). For the same compound, the solubility [5, 12] was over 0.1 mg/mL, the solubility [5, 13] was 0.05 to 0.1 mg/mL (≈ 188 to 375 µM) and the “elogD pH 7.4” value [6] was 0.35. For the same compound, the chromatographic logD [6] was 0.35, the Metabolites detected [7] was “None detected” and the microsomal CLint at 2 µM [7] was 7.4 µL/min/mg. For the same compound, the “Microsome predicted E H (hepatic extraction ratio)” value [7] was 0.29, the CLint scaled at 2 µM [7] was 0.516 L/h/kg and the “SI (selective index) L. donovani” value [8] was 5.9.
`C[C@H]1[C@H](OC(=O)CCC(=O)O)O[C@@H]2O[C@@]3(C)CC[C@H]4[C@H](C)CC[C@@H]1[C@@]24OO3` [Artesunate, reference compound] showed an IC50 [1, 10] of 0.0019 mg/L (≈ 0.00494 µM).
Compound `C=C[C@H]1C[N@@]2CC[C@H]1C[C@H]2[C@H](O)c1ccnc2ccc(OC)cc12` [Quinine, reference compound] has an IC50 [2, 9] of 0.097 mg/L (≈ 0.299 µM) and an IC50 [3, 11] of 0.027 mg/L (≈ 0.0832 µM).
Work on `C=CC(C)(O)C(=O)C[C@H]1C(C)(C)C(=O)C=C[C@]1(C)O` (some centres unmarked) [Compound 4] yielded an IC50 [1, 10] of over 1 mg/L.
